We go through 1 molecule from patent US8293269B2, “Compositions for promoting sleep” (Taiyo Kagaku Co., Ltd., priority 2000, dated 2012).

This series has as its system mice. Briefly: acute toxic test using mice. Type of series: in vivo. The settings on record: administered orally at 5 g/kg. The source says: The safety of the theanine used in the present invention is high. […] In addition, especially L-theanine is known as the main component of deliciousness (umami) of tea, and is also used as a food additive for the use of deliciousness, and there is no limitation in its amount according to the Japanese Food Sanitation Act. Moreover, contrary to the conventional medicament for ameliorating sleep disorders, since dependence on the theanine is not found at all, the sleep can be promoted safely and effectively by the use of the composition, food or medicament of the present invention, whereby moderating or ameliorating the sleep disorders.

Consider `CCNC(=O)CC[C@H](N)C(=O)O` [theanine, γ-glutamylethylamide], for which the “abnormality in the general state and body weight” value is recorded as “no abnormality”; the death cases entry was “no death cases”.
